Experimental data: ChEMBL document CHEMBL3991601, “The target landscape of clinical kinase drugs” (Science, 2017)
Active and inactive are the calls of the source.

What was measured:
[1] = target: Ephrin type-A receptor 5 (Homo sapiens, UniProt P54756)
[2] = target: Chromodomain-helicase-DNA-binding protein 4 (Homo sapiens, UniProt Q14839)
[3] = target: Receptor-interacting serine/threonine-protein kinase 3 (Homo sapiens, UniProt Q9Y572)
[4] = target: T1, Septin-9 (Homo sapiens, UniProt Q9UHD8)
T1 sequence (Q9UHD8 whole entry): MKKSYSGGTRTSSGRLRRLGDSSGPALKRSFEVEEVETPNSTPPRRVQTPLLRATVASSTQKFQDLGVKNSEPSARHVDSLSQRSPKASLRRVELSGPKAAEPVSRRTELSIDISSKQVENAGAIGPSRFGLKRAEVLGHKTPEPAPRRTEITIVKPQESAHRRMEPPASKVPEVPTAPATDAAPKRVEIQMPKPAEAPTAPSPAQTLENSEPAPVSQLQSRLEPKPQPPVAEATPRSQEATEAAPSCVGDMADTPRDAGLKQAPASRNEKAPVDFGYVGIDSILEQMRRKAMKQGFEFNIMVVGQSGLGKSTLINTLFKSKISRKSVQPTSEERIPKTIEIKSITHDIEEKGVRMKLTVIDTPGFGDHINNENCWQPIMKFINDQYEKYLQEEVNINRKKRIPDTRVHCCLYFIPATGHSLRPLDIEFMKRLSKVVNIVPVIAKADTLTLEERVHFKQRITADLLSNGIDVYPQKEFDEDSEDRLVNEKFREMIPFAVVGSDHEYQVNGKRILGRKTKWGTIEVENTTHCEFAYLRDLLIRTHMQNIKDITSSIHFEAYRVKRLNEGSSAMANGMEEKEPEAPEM

[5] = target: Ribosomal protein S6 kinase beta-1 (Homo sapiens, UniProt P23443)
Ribosomal protein S6 kinase beta-1, sequence (P23443 whole entry): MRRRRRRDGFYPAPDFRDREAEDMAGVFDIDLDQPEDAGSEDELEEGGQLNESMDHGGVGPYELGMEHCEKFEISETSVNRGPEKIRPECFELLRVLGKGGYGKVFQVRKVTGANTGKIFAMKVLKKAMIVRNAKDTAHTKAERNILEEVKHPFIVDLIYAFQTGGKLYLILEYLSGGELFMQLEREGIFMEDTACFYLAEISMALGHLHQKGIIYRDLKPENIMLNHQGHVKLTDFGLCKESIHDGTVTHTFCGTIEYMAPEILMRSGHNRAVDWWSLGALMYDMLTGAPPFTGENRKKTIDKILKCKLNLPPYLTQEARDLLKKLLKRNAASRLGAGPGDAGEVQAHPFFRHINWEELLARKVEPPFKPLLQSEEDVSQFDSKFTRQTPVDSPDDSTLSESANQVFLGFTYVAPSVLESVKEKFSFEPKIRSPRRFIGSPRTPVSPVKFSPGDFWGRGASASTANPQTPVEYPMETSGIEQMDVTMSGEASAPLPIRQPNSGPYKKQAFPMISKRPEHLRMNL

[6] = target: TRAF2 and NCK-interacting protein kinase (Homo sapiens, UniProt Q9UKE5)
TRAF2 and NCK-interacting protein kinase, sequence (Q9UKE5 whole entry): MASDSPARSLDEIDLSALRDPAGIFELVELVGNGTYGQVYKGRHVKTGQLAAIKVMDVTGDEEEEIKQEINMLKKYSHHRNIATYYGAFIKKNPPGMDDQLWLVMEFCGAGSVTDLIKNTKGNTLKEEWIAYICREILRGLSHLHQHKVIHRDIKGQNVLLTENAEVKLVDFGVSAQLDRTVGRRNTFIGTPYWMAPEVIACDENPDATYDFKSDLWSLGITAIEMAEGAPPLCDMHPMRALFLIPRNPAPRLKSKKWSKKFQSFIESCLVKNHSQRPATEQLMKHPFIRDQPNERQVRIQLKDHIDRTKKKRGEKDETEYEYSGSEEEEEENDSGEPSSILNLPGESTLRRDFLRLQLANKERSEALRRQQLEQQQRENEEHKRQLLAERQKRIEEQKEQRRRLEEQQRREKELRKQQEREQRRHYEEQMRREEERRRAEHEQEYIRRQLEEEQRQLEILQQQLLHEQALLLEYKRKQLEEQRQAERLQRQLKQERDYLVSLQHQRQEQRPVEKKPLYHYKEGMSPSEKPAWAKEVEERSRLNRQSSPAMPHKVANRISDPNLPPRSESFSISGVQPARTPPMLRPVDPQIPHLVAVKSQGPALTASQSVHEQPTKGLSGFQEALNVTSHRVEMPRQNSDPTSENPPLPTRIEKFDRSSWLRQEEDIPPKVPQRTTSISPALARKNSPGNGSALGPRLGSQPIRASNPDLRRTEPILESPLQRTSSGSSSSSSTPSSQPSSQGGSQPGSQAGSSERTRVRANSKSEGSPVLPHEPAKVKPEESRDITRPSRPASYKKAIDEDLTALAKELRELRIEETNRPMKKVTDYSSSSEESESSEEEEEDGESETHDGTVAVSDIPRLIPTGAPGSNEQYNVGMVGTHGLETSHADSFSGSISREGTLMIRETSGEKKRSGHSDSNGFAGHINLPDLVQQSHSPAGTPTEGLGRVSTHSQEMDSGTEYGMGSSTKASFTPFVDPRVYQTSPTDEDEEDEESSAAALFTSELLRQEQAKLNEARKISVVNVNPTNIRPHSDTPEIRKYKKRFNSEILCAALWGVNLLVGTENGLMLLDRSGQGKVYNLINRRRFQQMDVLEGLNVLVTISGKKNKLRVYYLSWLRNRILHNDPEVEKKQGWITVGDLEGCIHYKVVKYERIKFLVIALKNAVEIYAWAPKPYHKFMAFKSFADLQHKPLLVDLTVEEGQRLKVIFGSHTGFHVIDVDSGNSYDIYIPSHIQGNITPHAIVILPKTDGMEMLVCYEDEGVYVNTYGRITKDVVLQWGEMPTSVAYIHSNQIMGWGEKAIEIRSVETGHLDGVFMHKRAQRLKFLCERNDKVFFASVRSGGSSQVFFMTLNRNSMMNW

[7] = target: T2, Serine/threonine-protein kinase Nek2 (Homo sapiens, UniProt P51955)
T2 sequence (P51955 whole entry): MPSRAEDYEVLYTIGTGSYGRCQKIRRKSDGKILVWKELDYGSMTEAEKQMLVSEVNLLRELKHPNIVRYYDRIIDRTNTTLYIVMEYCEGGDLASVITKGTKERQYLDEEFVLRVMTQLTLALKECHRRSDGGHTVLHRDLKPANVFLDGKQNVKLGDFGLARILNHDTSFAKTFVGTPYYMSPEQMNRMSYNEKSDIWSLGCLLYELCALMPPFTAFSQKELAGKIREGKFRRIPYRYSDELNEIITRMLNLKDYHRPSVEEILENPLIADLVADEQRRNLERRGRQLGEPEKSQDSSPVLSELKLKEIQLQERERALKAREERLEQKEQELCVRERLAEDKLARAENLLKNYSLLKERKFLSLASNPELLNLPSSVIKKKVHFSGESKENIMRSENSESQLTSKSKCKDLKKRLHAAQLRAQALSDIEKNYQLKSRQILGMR

[8] = target: Inosine-5'-monophosphate dehydrogenase 2 (Homo sapiens, UniProt P12268)
[9] = target: Adenosine kinase (Homo sapiens, UniProt P55263)
Adenosine kinase, sequence (P55263 whole entry): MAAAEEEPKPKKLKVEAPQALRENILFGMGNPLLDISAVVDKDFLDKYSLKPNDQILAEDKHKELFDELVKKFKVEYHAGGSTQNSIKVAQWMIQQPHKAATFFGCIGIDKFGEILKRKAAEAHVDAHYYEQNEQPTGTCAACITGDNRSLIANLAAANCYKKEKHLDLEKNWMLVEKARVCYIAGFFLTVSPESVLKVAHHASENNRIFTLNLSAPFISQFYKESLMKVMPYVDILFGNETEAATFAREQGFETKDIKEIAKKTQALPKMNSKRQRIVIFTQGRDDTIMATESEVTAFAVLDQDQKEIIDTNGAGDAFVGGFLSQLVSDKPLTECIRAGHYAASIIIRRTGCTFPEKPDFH

[10] = target: Dual specificity mitogen-activated protein kinase kinase 1 (Homo sapiens, UniProt Q02750)
Dual specificity mitogen-activated protein kinase kinase 1, sequence (Q02750 whole entry): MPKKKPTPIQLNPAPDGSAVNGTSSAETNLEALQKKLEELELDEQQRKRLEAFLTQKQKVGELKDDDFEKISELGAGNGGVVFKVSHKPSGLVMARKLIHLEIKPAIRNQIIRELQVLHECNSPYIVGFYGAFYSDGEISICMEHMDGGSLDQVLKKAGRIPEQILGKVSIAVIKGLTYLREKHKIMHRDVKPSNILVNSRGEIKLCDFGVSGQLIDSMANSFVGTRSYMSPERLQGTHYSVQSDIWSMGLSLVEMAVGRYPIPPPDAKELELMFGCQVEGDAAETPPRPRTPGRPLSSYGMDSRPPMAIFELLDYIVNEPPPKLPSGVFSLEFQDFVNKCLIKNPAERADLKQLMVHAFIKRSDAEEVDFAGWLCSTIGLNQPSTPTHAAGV

[11] = target: Adenylate kinase 2, mitochondrial (Homo sapiens, UniProt P54819)
[12] = target: T3, Serine/threonine-protein kinase Nek1 (Homo sapiens, UniProt Q96PY6)
T3 sequence (Q96PY6 whole entry): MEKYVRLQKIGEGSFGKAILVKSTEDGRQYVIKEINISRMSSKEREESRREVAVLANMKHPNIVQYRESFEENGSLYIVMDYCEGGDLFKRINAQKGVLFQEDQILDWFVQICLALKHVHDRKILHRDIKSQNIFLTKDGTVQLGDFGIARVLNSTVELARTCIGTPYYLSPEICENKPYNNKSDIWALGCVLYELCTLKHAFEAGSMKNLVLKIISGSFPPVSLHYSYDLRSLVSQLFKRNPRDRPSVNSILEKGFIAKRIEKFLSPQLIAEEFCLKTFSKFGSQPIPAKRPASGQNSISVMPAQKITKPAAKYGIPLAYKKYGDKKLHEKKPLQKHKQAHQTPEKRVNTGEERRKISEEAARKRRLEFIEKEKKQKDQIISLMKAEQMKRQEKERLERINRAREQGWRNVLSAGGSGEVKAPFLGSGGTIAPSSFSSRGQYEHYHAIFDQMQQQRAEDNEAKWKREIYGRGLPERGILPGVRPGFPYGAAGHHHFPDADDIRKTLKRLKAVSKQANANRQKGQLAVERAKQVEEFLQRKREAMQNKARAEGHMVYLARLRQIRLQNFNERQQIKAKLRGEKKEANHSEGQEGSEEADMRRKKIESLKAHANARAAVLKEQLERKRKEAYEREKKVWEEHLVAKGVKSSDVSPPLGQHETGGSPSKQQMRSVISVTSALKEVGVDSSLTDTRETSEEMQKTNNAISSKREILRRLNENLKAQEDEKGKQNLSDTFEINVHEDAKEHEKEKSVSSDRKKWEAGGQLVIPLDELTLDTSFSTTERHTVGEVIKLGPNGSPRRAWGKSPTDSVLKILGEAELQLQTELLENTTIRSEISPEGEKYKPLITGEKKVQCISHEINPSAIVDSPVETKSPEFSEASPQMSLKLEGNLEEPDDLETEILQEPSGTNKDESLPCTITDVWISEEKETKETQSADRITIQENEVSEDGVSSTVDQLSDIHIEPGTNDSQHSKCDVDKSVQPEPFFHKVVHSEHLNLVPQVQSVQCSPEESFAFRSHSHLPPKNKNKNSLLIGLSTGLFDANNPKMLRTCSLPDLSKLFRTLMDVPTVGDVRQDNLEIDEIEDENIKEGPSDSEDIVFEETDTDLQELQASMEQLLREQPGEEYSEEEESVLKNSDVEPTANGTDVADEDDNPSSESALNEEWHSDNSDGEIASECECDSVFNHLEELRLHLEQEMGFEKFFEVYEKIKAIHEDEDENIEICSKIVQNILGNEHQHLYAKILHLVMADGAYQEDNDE

[13] = target: Serine/threonine-protein kinase PAK 2 (Homo sapiens, UniProt Q13177)
Serine/threonine-protein kinase PAK 2, sequence (Q13177 whole entry): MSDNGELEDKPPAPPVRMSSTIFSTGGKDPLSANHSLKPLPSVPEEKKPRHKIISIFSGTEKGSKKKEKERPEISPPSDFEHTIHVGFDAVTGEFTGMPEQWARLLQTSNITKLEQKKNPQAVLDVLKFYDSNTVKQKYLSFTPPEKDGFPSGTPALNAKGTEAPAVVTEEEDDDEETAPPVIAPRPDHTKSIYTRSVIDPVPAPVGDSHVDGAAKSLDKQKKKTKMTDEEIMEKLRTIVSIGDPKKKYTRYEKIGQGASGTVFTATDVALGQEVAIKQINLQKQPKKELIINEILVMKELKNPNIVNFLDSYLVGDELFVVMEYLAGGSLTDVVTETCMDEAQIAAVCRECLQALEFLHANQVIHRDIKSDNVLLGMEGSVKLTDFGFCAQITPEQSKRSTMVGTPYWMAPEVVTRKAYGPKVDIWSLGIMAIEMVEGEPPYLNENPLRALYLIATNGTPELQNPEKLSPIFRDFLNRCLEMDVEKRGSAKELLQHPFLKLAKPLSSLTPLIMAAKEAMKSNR

[14] = target: Ephrin type-A receptor 7 (Homo sapiens, UniProt Q15375)
Ephrin type-A receptor 7, sequence (Q15375 whole entry): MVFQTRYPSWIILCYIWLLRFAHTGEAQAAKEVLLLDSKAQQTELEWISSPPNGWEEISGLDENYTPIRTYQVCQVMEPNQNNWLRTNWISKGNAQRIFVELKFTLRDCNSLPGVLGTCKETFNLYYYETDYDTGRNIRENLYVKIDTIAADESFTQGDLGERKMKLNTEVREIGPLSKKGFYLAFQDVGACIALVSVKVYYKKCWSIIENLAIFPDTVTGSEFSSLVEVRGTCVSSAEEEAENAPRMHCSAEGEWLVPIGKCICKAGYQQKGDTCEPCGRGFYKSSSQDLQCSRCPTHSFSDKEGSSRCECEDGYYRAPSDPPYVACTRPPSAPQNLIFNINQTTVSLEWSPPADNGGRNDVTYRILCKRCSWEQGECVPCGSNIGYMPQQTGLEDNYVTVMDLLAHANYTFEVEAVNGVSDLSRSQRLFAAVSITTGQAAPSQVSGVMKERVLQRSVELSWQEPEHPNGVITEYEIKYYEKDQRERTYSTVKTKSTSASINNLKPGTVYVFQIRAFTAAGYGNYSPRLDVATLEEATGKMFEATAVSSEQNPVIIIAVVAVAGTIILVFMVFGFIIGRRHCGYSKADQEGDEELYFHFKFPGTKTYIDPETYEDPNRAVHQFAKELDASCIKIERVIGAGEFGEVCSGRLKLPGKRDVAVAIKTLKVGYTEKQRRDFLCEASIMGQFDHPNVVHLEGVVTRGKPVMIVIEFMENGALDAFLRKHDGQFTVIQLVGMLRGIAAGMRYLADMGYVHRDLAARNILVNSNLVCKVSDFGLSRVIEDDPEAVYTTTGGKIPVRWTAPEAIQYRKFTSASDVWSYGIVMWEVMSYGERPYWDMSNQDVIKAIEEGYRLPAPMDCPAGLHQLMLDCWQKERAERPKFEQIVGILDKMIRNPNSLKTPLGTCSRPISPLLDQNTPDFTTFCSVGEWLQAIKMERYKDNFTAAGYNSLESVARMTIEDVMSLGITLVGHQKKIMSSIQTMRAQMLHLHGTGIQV
Further: in the data inactive means no Kd found up to 30 µM.

Receptor-interacting serine/threonine-protein kinase 3, sequence (Q9Y572 whole entry): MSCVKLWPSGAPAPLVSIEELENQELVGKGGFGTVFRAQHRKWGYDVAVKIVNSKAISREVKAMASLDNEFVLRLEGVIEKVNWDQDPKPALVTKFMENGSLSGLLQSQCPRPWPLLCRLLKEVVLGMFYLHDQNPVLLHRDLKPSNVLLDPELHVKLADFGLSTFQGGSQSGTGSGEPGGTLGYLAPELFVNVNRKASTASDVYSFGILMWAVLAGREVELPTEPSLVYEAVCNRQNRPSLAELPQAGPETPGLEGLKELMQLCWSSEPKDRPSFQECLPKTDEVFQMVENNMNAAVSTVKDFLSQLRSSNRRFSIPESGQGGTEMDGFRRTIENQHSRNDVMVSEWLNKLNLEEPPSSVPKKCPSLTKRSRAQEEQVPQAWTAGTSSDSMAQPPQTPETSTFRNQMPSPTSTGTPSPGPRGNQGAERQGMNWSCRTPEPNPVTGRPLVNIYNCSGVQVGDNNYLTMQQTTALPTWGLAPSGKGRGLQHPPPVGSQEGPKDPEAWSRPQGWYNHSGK

## C[C@H]1CNCCCN1S(=O)(=O)c1cccc2cncc(F)c12
[1]
  Kd: > 30 µM (inactive)
[2]
  Kd: > 30 µM (inactive)
[3]
  Kd: > 30 µM (inactive)
[4]
  Kd: > 30 µM (inactive)
[5]
  Kd: > 30 µM (inactive)
[6]
  Kd: > 30 µM (inactive)
[7]
  Kd: > 30 µM (inactive)
[8]
  Kd: > 30 µM (inactive)
[9]
  Kd: > 30 µM (inactive)
[10]
  Kd: > 30 µM (inactive)
[11]
  Kd: > 30 µM (inactive)
[12]
  Kd: > 30 µM (inactive)

## COc1cc(Nc2ncc3c(n2)-c2ccc(Cl)cc2C(c2c(F)cccc2OC)=NC3)ccc1C(=O)O [ALISERTIB]
[1]
  Kd: > 30 µM (inactive)
[13]
  Kd: > 30 µM (inactive)
[2]
  Kd: > 30 µM (inactive)
[3]
  Kd: > 30 µM (inactive)
[4]
  Kd: > 30 µM (inactive)
[6]
  Kd: > 30 µM (inactive)
[8]
  Kd: > 30 µM (inactive)
[14]
  Kd: > 30 µM (inactive)
[9]
  Kd: > 30 µM (inactive)
[11]
  Kd: > 30 µM (inactive)
[12]
  Kd: > 30 µM (inactive)

## Cc1cc(C(=O)NOCCO)c(Nc2ccc(I)cc2F)n(C)c1=O [AZD-8330]
[1]
  Kd: > 30 µM (inactive)
[13]
  Kd: > 30 µM (inactive)
[2]
  Kd: > 30 µM (inactive)
[3]
  Kd: > 30 µM (inactive)
[4]
  Kd: > 30 µM (inactive)
[6]
  Kd: > 30 µM (inactive)
[7]
  Kd: > 30 µM (inactive)
[8]
  Kd: > 30 µM (inactive)
[9]
  Kd: > 30 µM (inactive)
[11]
  Kd: > 30 µM (inactive)
[12]
  Kd: > 30 µM (inactive)

## CC(C)(C)c1nc(-c2cccc(NS(=O)(=O)c3c(F)cccc3F)c2F)c(-c2ccnc(N)n2)s1 [DABRAFENIB]
[2]
  Kd: > 30 µM (inactive)
[3]
  Kd: 0.283 µM (active)
[4]
  Kd: > 30 µM (inactive)
[6]
  Kd: > 30 µM (inactive)
[8]
  Kd: > 30 µM (inactive)
[14]
  Kd: > 30 µM (inactive)
[9]
  Kd: > 30 µM (inactive)
[10]
  Kd: > 30 µM (inactive)
[11]
  Kd: > 30 µM (inactive)

## Cc1nc2cc(-n3ncc(C(=O)c4cc5ccccc5[nH]4)c3N)ccc2[nH]1 [FGFR INHIBITOR DEBIO 1347]
[1]
  Kd: > 30 µM (inactive)
[13]
  Kd: > 30 µM (inactive)
[2]
  Kd: > 30 µM (inactive)
[3]
  Kd: > 30 µM (inactive)
[4]
  Kd: > 30 µM (inactive)
[6]
  Kd: > 30 µM (inactive)
[7]
  Kd: > 30 µM (inactive)
[8]
  Kd: > 30 µM (inactive)
[10]
  Kd: > 30 µM (inactive)
[11]
  Kd: > 30 µM (inactive)
[12]
  Kd: > 30 µM (inactive)

## CCn1cc(-c2ccnc3[nH]c(-c4cccc(CN(C)C)c4)cc23)c(-c2ccc(NC(=O)N(C)C)cc2)n1 [GSK-1070916]
[1]
  Kd: > 30 µM (inactive)
[13]
  Kd: > 30 µM (inactive)
[3]
  Kd: > 30 µM (inactive)
[4]
  Kd: > 30 µM (inactive)
[6]
  Kd: > 30 µM (inactive)
[7]
  Kd: > 30 µM (inactive)
[8]
  Kd: > 30 µM (inactive)
[14]
  Kd: > 30 µM (inactive)
[9]
  Kd: > 30 µM (inactive)
[10]
  Kd: > 30 µM (inactive)
[11]
  Kd: > 30 µM (inactive)
[12]
  Kd: > 30 µM (inactive)

## O=C(Nc1cc(C(F)(F)F)cc(C(F)(F)F)c1)c1cc(Cl)ccc1O [IMD-0354]
[1]
  Kd: > 30 µM (inactive)
[13]
  Kd: > 30 µM (inactive)
[2]
  Kd: > 30 µM (inactive)
[3]
  Kd: > 30 µM (inactive)
[4]
  Kd: > 30 µM (inactive)
[6]
  Kd: > 30 µM (inactive)
[8]
  Kd: > 30 µM (inactive)
[14]
  Kd: > 30 µM (inactive)
[9]
  Kd: > 30 µM (inactive)
[10]
  Kd: > 30 µM (inactive)
[11]
  Kd: > 30 µM (inactive)
[12]
  Kd: > 30 µM (inactive)

## Cc1[nH]c(/C=C2\C(=O)Nc3ccccc32)c(C)c1CCC(=O)O [ORANTINIB]
[1]
  Kd: > 30 µM (inactive)
[13]
  Kd: > 30 µM (inactive)
[2]
  Kd: > 30 µM (inactive)
[3]
  Kd: > 30 µM (inactive)
[4]
  Kd: > 30 µM (inactive)
[6]
  Kd: 0.012 µM
[8]
  Kd: > 30 µM (inactive)
[14]
  Kd: > 30 µM (inactive)
[9]
  Kd: > 30 µM (inactive)
[10]
  Kd: 3.43 µM (active)
[11]
  Kd: > 30 µM (inactive)
[12]
  Kd: > 30 µM (inactive)

## NC(=O)c1c(OCc2c(F)cc(Br)cc2F)nsc1NC(=O)NCCCCN1CCCC1 [OSI-632]
[1]
  Kd: > 30 µM (inactive)
[2]
  Kd: > 30 µM (inactive)
[3]
  Kd: > 30 µM (inactive)
[4]
  Kd: > 30 µM (inactive)
[6]
  Kd: > 30 µM (inactive)
[8]
  Kd: > 30 µM (inactive)
[14]
  Kd: > 30 µM (inactive)
[9]
  Kd: > 30 µM (inactive)
[11]
  Kd: > 30 µM (inactive)
[12]
  Kd: > 30 µM (inactive)

## CCCCCCCCCCCCCCCCCCOP(=O)([O-])OC1CC[N+](C)(C)CC1 [PERIFOSINE]
[1]
  Kd: > 30 µM (inactive)
[13]
  Kd: > 30 µM (inactive)
[2]
  Kd: > 30 µM (inactive)
[3]
  Kd: > 30 µM (inactive)
[4]
  Kd: > 30 µM (inactive)
[6]
  Kd: > 30 µM (inactive)
[7]
  Kd: > 30 µM (inactive)
[8]
  Kd: > 30 µM (inactive)
[14]
  Kd: > 30 µM (inactive)
[9]
  Kd: > 30 µM (inactive)
[10]
  Kd: > 30 µM (inactive)
[11]
  Kd: > 30 µM (inactive)
[12]
  Kd: > 30 µM (inactive)

## Cc1nc(Nc2n[nH]c3c2CN(C(=O)N[C@H](CN(C)C)c2ccccc2)C3(C)C)c2sccc2n1 [PF-03758309]
[1]
  Kd: > 30 µM (inactive)
[13]
  Kd: > 30 µM (inactive)
[2]
  Kd: > 30 µM (inactive)
[3]
  Kd: > 30 µM (inactive)
[4]
  Kd: > 30 µM (inactive)
[6]
  Kd: > 30 µM (inactive)
[7]
  Kd: > 30 µM (inactive)
[14]
  Kd: > 30 µM (inactive)
[9]
  Kd: > 30 µM (inactive)
[10]
  Kd: > 30 µM (inactive)
[11]
  Kd: > 30 µM (inactive)
[12]
  Kd: > 30 µM (inactive)

## CC(=O)NCC(=O)N1[C@@H]2CC[C@H]1c1ccc(Nc3ncc(C(F)(F)F)c(NC4CCC4)n3)cc12 [PF-03814735]
[1]
  Kd: > 30 µM (inactive)
[2]
  Kd: > 30 µM (inactive)
[3]
  Kd: > 30 µM (inactive)
[4]
  Kd: > 30 µM (inactive)
[6]
  Kd: 0.746 µM (active)
[14]
  Kd: > 30 µM (inactive)
[9]
  Kd: > 30 µM (inactive)
[11]
  Kd: > 30 µM (inactive)
[12]
  Kd: > 30 µM (inactive)

## C[C@@H](N)c1ccc(C(=O)Nc2ccnc3[nH]ccc23)cc1 [Y-39983]
[1]
  Kd: > 30 µM (inactive)
[13]
  Kd: > 30 µM (inactive)
[2]
  Kd: > 30 µM (inactive)
[3]
  Kd: > 30 µM (inactive)
[4]
  Kd: > 30 µM (inactive)
[6]
  Kd: > 30 µM (inactive)
[7]
  Kd: > 30 µM (inactive)
[8]
  Kd: > 30 µM (inactive)
[14]
  Kd: > 30 µM (inactive)
[9]
  Kd: > 30 µM (inactive)
[10]
  Kd: > 30 µM (inactive)
[11]
  Kd: > 30 µM (inactive)
[12]
  Kd: > 30 µM (inactive)
